Data from ChEMBL document CHEMBL1201862, “PubChem BioAssay data set” (2004).
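Test compounds were applied to cells in 96-well plates for 48 hours at 5 doses. At the GI50, growth is halved.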 The source made the active and inactive calls. Rule as the data show it: active = GI50 up to about 1.1 µM and inactive = higher.

Legend:
Assay in all cases: DTP human tumour cell line panel, 48 h
786-0 = tested on: 786-0
A498 = tested on: A498
CAKI-1 = tested on: CAKI-1
HCT-116 = tested on: HCT-116
HOP-92 = tested on: HOP-92
Hs-578T = tested on: Hs-578T
MCF7 = tested on: MCF7
MDA-N = tested on: MDA-N
MOLT-4 = tested on: MOLT-4
NCI-H226 = tested on: NCI-H226
NCI-H23 = tested on: NCI-H23
NCI-H522 = tested on: NCI-H522
PC-3 = tested on: PC-3
RPMI-8226 = tested on: RPMI-8226
SR = tested on: SR
SW-620 = tested on: SW-620
TK-10 = tested on: TK-10
U-251 = tested on: U-251
UACC-62 = tested on: UACC-62
UO-31 = tested on: UO-31

Compound | GI50 (786-0) | GI50 (A498) | GI50 (CAKI-1) | GI50 (HCT-116) | GI50 (HOP-92) | GI50 (Hs-578T) | GI50 (MCF7) | GI50 (MDA-N) | GI50 (MOLT-4) | GI50 (NCI-H226) | GI50 (NCI-H23) | GI50 (NCI-H522) | GI50 (PC-3) | GI50 (RPMI-8226) | GI50 (SR) | GI50 (SW-620) | GI50 (TK-10) | GI50 (U-251) | GI50 (UACC-62) | GI50 (UO-31)
O=C(NCCCNC(=O)c1ccc2c(O)c(O)ccc2c1)c1ccc2c(O)c(O)ccc2c1 | 23.9 µM (inactive) | > 48.3 µM (inactive) | > 63 µM (inactive) | 32.3 µM (inactive) | 31 µM (inactive) | 18.5 µM (inactive) | 10.5 µM (inactive) | 19.1 µM (inactive) | 20.4 µM (inactive) | 63 µM (inactive) | 22.1 µM (inactive) | 23.8 µM (inactive) | 47.1 µM (inactive) | 39.7 µM (inactive) | 15.1 µM (inactive) | 25.5 µM (inactive) | 43.8 µM (inactive) | 24.1 µM (inactive) | 29.9 µM (inactive) | 26.6 µM (inactive)
NC1C/C(=N\O)c2c(Cl)sc(Cl)c21 (configuration not stated) | 18.1 µM (inactive) | 20.2 µM (inactive) | 18 µM (inactive) | 3.96 µM (inactive) | 22.9 µM (inactive) | 59.3 µM (inactive) | 11 µM (inactive) | 18 µM (inactive) | 9.73 µM (inactive) | 21.9 µM (inactive) | 17.1 µM (inactive) |  | 20.8 µM (inactive) | 10.2 µM (inactive) | 20.1 µM (inactive) | 17.9 µM (inactive) | 17.5 µM (inactive) |  |  | 17.4 µM (inactive)
CC1OC(OC2C(O)COC(OC3C(C)OC(OC4C(OC(=O)[C@]56CCC(C)(C)C[C@@H]5C5=CCC7[C@@]8(C)C[C@H](O)[C@H](OC9OC(CO)C(O)C(O)C9O)[C@@](C)(CO)[C@@H]8CC[C@@]7(C)[C@]5(C)CC6)OCC(O)C4O)C(O)C3O)C2O)C(O)C(O)C1O (some centres not stated) | 18.1 µM (inactive) | 19.5 µM (inactive) | 12.5 µM (inactive) | 25.8 µM (inactive) | 23.7 µM (inactive) | 32 µM (inactive) | 30.9 µM (inactive) | 20.5 µM (inactive) | 19 µM (inactive) | 25.1 µM (inactive) | 28.2 µM (inactive) | 46.6 µM (inactive) | 18.2 µM (inactive) | 33.2 µM (inactive) | 21 µM (inactive) | 20.1 µM (inactive) | 17.1 µM (inactive) | 23.9 µM (inactive) | 20.8 µM (inactive) | 12.9 µM (inactive)
CCC1(O)CC2CC(=O)OC2C1O (configuration not stated) | > 100 µM (inactive) | > 100 µM (inactive) | > 100 µM (inactive) |  | > 100 µM (inactive) | > 100 µM (inactive) | > 100 µM (inactive) | > 100 µM (inactive) | > 100 µM (inactive) | > 100 µM (inactive) | > 100 µM (inactive) | > 100 µM (inactive) | > 100 µM (inactive) | > 100 µM (inactive) | > 100 µM (inactive) | > 100 µM (inactive) | > 100 µM (inactive) | > 100 µM (inactive) | > 100 µM (inactive) | > 100 µM (inactive)
CCOC(=O)C(C)c1nc2cc(N3CCN(C)CC3)c(F)cc2[nH]c1=O (configuration not stated) | > 100 µM (inactive) | > 100 µM (inactive) | > 100 µM (inactive) | > 100 µM (inactive) | > 100 µM (inactive) | > 100 µM (inactive) | > 100 µM (inactive) | > 100 µM (inactive) | > 100 µM (inactive) | > 100 µM (inactive) | > 100 µM (inactive) | 40.5 µM (inactive) | > 100 µM (inactive) | > 100 µM (inactive) | > 100 µM (inactive) | > 100 µM (inactive) |  | > 100 µM (inactive) | > 100 µM (inactive) | > 100 µM (inactive)
Cc1c2c(c(C)n1-c1ccccc1)C(=O)N(CCCCN1CCN(c3ccccc3)CC1)C2=O | 4.97 µM (inactive) | 26.1 µM (inactive) | 31.1 µM (inactive) | 7.71 µM (inactive) | 8.17 µM (inactive) | 20.2 µM (inactive) | 9.42 µM (inactive) | 9.57 µM (inactive) | 5.71 µM (inactive) | 9.68 µM (inactive) | 6.73 µM (inactive) | 12.9 µM (inactive) | 6.82 µM (inactive) | 7.52 µM (inactive) | 8.85 µM (inactive) | 18.9 µM (inactive) | 30.2 µM (inactive) | 14.5 µM (inactive) | 15.8 µM (inactive) | 4.17 µM (inactive)
N#Cc1nc(CSCc2ccccc2)oc1N | > 100 µM (inactive) | > 100 µM (inactive) | > 100 µM (inactive) | > 100 µM (inactive) | > 100 µM (inactive) | > 100 µM (inactive) | > 100 µM (inactive) | > 100 µM (inactive) | > 100 µM (inactive) | > 100 µM (inactive) | > 100 µM (inactive) | 42.6 µM (inactive) | > 100 µM (inactive) |  | > 100 µM (inactive) | > 100 µM (inactive) | > 100 µM (inactive) | > 100 µM (inactive) | > 100 µM (inactive) | > 100 µM (inactive)
CC#CCOC(=O)c1ccccc1OC(C)=O | > 100 µM (inactive) | > 100 µM (inactive) | > 100 µM (inactive) | > 100 µM (inactive) | > 100 µM (inactive) | > 100 µM (inactive) | > 100 µM (inactive) | > 100 µM (inactive) | > 100 µM (inactive) | > 100 µM (inactive) | > 100 µM (inactive) | > 100 µM (inactive) | > 100 µM (inactive) | > 100 µM (inactive) | > 100 µM (inactive) | > 100 µM (inactive) | > 100 µM (inactive) | > 100 µM (inactive) | > 100 µM (inactive) | > 100 µM (inactive)
CCOC(=O)Cn1nc2ccc(Nc3c(C)[n+]([O-])c4cc(F)c(OCC)cc4[n+]3[O-])cc2n1 | 29.8 µM (inactive) | > 100 µM (inactive) | > 100 µM (inactive) | > 100 µM (inactive) | 18.2 µM (inactive) | 40.7 µM (inactive) | > 100 µM (inactive) | > 100 µM (inactive) | > 100 µM (inactive) | > 100 µM (inactive) | > 100 µM (inactive) | > 100 µM (inactive) | > 100 µM (inactive) | > 100 µM (inactive) | > 100 µM (inactive) | > 100 µM (inactive) | 27.5 µM (inactive) | 37.5 µM (inactive) |  | > 100 µM (inactive)
CCCCCCCC(CC(=O)O)OC(=O)CC(CCCCCCC)OC1OC(C)C(O)C(O)C1OC1OC(C)C(O)C(O)C1O (configuration not stated) | > 100 µM (inactive) | > 100 µM (inactive) | > 100 µM (inactive) | > 100 µM (inactive) | > 100 µM (inactive) | 67.6 µM (inactive) | > 100 µM (inactive) | > 100 µM (inactive) | > 100 µM (inactive) | > 100 µM (inactive) | > 100 µM (inactive) | > 100 µM (inactive) | > 100 µM (inactive) | > 100 µM (inactive) | > 100 µM (inactive) | > 100 µM (inactive) |  | > 100 µM (inactive) | > 100 µM (inactive) | > 100 µM (inactive)
O=c1oc2ccccc2cc1P(=O)(O)O | > 100 µM (inactive) | > 100 µM (inactive) | > 100 µM (inactive) | > 100 µM (inactive) | > 100 µM (inactive) | > 100 µM (inactive) | > 100 µM (inactive) | > 100 µM (inactive) | > 100 µM (inactive) | > 100 µM (inactive) | > 100 µM (inactive) | > 100 µM (inactive) | > 100 µM (inactive) | > 100 µM (inactive) | > 100 µM (inactive) | > 100 µM (inactive) | > 100 µM (inactive) | > 100 µM (inactive) | > 100 µM (inactive) | 
Oc1ccc(Cl)cc1C1=NC(NCN2CCN(CNC3=NC(c4ccccc4)CC(c4cc(Cl)ccc4O)=N3)CC2)=NC(c2ccccc2)C1 (configuration not stated) | 20.9 µM (inactive) | 47.8 µM (inactive) | 29.5 µM (inactive) | 20.4 µM (inactive) | 58.2 µM (inactive) | 55.7 µM (inactive) | 9.08 µM (inactive) | 50.2 µM (inactive) |  | 53.8 µM (inactive) | 46.6 µM (inactive) |  | 39.7 µM (inactive) | 18.4 µM (inactive) | 28 µM (inactive) | 33.1 µM (inactive) | 48.8 µM (inactive) | 35.4 µM (inactive) | 45 µM (inactive) | 37.3 µM (inactive)
[N-]=[N+]=Nc1cc(=O)n2c3c(cccc13)CCC2 | > 100 µM (inactive) | > 100 µM (inactive) |  | > 100 µM (inactive) | > 100 µM (inactive) | > 100 µM (inactive) | > 100 µM (inactive) | > 100 µM (inactive) | > 100 µM (inactive) | > 100 µM (inactive) | > 100 µM (inactive) | > 100 µM (inactive) | > 100 µM (inactive) | > 100 µM (inactive) | > 100 µM (inactive) | > 100 µM (inactive) | > 100 µM (inactive) | > 100 µM (inactive) | > 100 µM (inactive) | > 100 µM (inactive)
C[C@@](O)(/C=C/[C@H]1CC=CC(=O)O1)[C@@H](C[C@@H](O)\C=C/C=C\C=C\CO)OP(=O)(O)O [FOSTRIECIN SODIUM] | 5.36 µM (inactive) | 23.9 µM (inactive) | 1.81 µM (inactive) | 3.26 µM (inactive) | 2.27 µM (inactive) | 5.51 µM (inactive) | 2.97 µM (inactive) | 0.828 µM (active) |  | 7.4 µM (inactive) | 10.2 µM (inactive) | 17.3 µM (inactive) | 4.48 µM (inactive) | 1.1 µM (active) | 3.99 µM (inactive) | 9.29 µM (inactive) | 12.8 µM (inactive) | 17.1 µM (inactive) | 3.77 µM (inactive) | 11 µM (inactive)
